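Dose response: 5 concentrations. Exposure: 48 h. Format: 96-well plates. Endpoint: linear interpolation; highest concentration if not reached. GI50 marks 50% less growth.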 Activity calls are given as the source filed them. No stated cut-off is given here; in the data, active = GI50 up to about 1.1 µM and inactive = higher. Residues, ends and D or L forms follow the SMILES beside them. *: point of attachment. Boc = CC(C)(C)OC(=O)*; OBn = c1ccc(CO*)cc1
Experiments:
Assay in all cases: DTP human tumour cell line panel, 48 h
NCI-H23 = tested on: NCI-H23
SF-539 = tested on: SF-539
OVCAR-5 = tested on: OVCAR-5
HCT-15 = tested on: HCT-15
SN12C = tested on: SN12C
Malme-3M = tested on: Malme-3M
OVCAR-4 = tested on: OVCAR-4
HOP-62 = tested on: HOP-62
UACC-62 = tested on: UACC-62
CAKI-1 = tested on: CAKI-1
MCF7 = tested on: MCF7
SW-620 = tested on: SW-620
CCRF-CEM = tested on: CCRF-CEM
HT-29 = tested on: HT-29
HL-60 = tested on: HL-60
OVCAR-8 = tested on: OVCAR-8
SR = tested on: SR
HCC 2998 = tested on: HCC 2998

SMILES	GI50 (NCI-H23)	GI50 (SF-539)	GI50 (OVCAR-5)	GI50 (HCT-15) [µM]	GI50 (SN12C)	GI50 (Malme-3M)	GI50 (OVCAR-4)	GI50 (HOP-62)	GI50 (UACC-62)	GI50 (CAKI-1)	GI50 (MCF7)	GI50 (SW-620)	GI50 (CCRF-CEM)	GI50 (HT-29)	GI50 (HL-60)	GI50 (OVCAR-8)	GI50 (SR)	GI50 (HCC 2998)
C/C(=N\Nc1cc(CN2CCCC2)c(-c2ccc(Cl)cc2)nn1)C(=O)O	> 100 µM (inactive)	> 100 µM (inactive)	> 100 µM (inactive)	> 100	> 100 µM (inactive)	> 100 µM (inactive)	> 100 µM (inactive)	> 100 µM (inactive)	> 100 µM (inactive)	> 100 µM (inactive)	> 100 µM (inactive)	> 100 µM (inactive)	> 100 µM (inactive)	> 100 µM (inactive)	> 100 µM (inactive)	> 100 µM (inactive)	> 100 µM (inactive)	–
CC(=O)OCC1OC(n2c(C)c(/N=N/c3ccc(C)cc3)c(C)c(C#N)c2=S)C(OC(C)=O)C(OC(C)=O)C1OC(C)=O (configuration not stated)	> 100 µM (inactive)	39.3 µM (inactive)	> 100 µM (inactive)	–	> 100 µM (inactive)	79.3 µM (inactive)	41.4 µM (inactive)	> 100 µM (inactive)	50.2 µM (inactive)	> 100 µM (inactive)	> 100 µM (inactive)	> 100 µM (inactive)	> 100 µM (inactive)	> 100 µM (inactive)	> 100 µM (inactive)	–	> 100 µM (inactive)	> 100 µM (inactive)
COc1ccc(/N=N/C(=N/NC(=O)c2ccccc2)c2ccc(N(CCC#N)CCC#N)cc2C)cc1	25.5 µM (inactive)	19.3 µM (inactive)	> 100 µM (inactive)	26.1	56.1 µM (inactive)	48 µM (inactive)	> 100 µM (inactive)	51.6 µM (inactive)	38.5 µM (inactive)	> 100 µM (inactive)	18.5 µM (inactive)	–	36.7 µM (inactive)	17.9 µM (inactive)	32.6 µM (inactive)	51.8 µM (inactive)	6.19 µM (inactive)	12.4 µM (inactive)
CCN(CC)CCC(=O)/C=C/c1ccccc1	18.2 µM (inactive)	19.9 µM (inactive)	17.5 µM (inactive)	15.6	15.5 µM (inactive)	15.9 µM (inactive)	21.1 µM (inactive)	20.3 µM (inactive)	–	3.27 µM (inactive)	2.48 µM (inactive)	5.89 µM (inactive)	3.57 µM (inactive)	5.05 µM (inactive)	2.55 µM (inactive)	19 µM (inactive)	3.41 µM (inactive)	19.5 µM (inactive)
N#CC(CCN1CCC(Nc2ccccc2)(c2nnnn2C2CCCCC2)CC1)(c1ccccc1)c1ccccc1	> 100 µM (inactive)	> 100 µM (inactive)	> 100 µM (inactive)	> 100	> 100 µM (inactive)	> 100 µM (inactive)	> 100 µM (inactive)	> 100 µM (inactive)	> 100 µM (inactive)	–	58.2 µM (inactive)	> 100 µM (inactive)	> 100 µM (inactive)	> 100 µM (inactive)	> 100 µM (inactive)	> 100 µM (inactive)	> 100 µM (inactive)	> 100 µM (inactive)
COC/C=C\[C@]1(O)CCCC[C@@H]1CC(OC)OC	> 100 µM (inactive)	> 100 µM (inactive)	> 100 µM (inactive)	> 100	–	> 100 µM (inactive)	> 100 µM (inactive)	> 100 µM (inactive)	> 100 µM (inactive)	> 100 µM (inactive)	> 100 µM (inactive)	> 100 µM (inactive)	37.1 µM (inactive)	> 100 µM (inactive)	20.4 µM (inactive)	> 100 µM (inactive)	81.1 µM (inactive)	> 100 µM (inactive)
COc1nc2ncc([C@@H](O)[C@H](O)CO)nc2c(=O)n1C	–	> 100 µM (inactive)	> 100 µM (inactive)	> 100	> 100 µM (inactive)	> 100 µM (inactive)	> 100 µM (inactive)	> 100 µM (inactive)	> 100 µM (inactive)	> 100 µM (inactive)	> 100 µM (inactive)	> 100 µM (inactive)	> 100 µM (inactive)	> 100 µM (inactive)	> 100 µM (inactive)	> 100 µM (inactive)	> 100 µM (inactive)	–
Cc1ccc2[nH]c3c(c2c1)CCC/C3=N/N=C(N)N	3.06 µM (inactive)	1.62 µM (inactive)	2.09 µM (inactive)	–	1.58 µM (inactive)	2.11 µM (inactive)	2.76 µM (inactive)	1.91 µM (inactive)	2.16 µM (inactive)	1.39 µM (inactive)	1.44 µM (inactive)	3.2 µM (inactive)	2.29 µM (inactive)	1.64 µM (inactive)	9.4 µM (inactive)	1.91 µM (inactive)	2.22 µM (inactive)	1.7 µM (inactive)
Nc1nc(N)c2cc(Sc3cccc(C(F)(F)F)c3)ccc2n1 [WR-159412]	2.99 µM (inactive)	3.17 µM (inactive)	13 µM (inactive)	0.499	0.729 µM (active)	1.02 µM (active)	6.78 µM (inactive)	2.12 µM (inactive)	0.755 µM (active)	1.17 µM (inactive)	2.86 µM (inactive)	–	0.53 µM (active)	3.62 µM (inactive)	1.62 µM (inactive)	–	0.843 µM (active)	1.39 µM (inactive)
CC(NC(=O)CNC(=O)OC(C)(C)C)C(=O)NC(Cc1ccccc1)C(=O)OCc1ccccc1 (stereo not drawn) (Boc-Gly-Ala-Phe-OBn; configuration not given here)	> 100 µM (inactive)	> 100 µM (inactive)	> 100 µM (inactive)	> 100	> 100 µM (inactive)	63.4 µM (inactive)	> 100 µM (inactive)	–	> 100 µM (inactive)	> 100 µM (inactive)	> 100 µM (inactive)	> 100 µM (inactive)	40.9 µM (inactive)	95.9 µM (inactive)	36.3 µM (inactive)	> 100 µM (inactive)	23.8 µM (inactive)	–
O=C1CC(CC(=O)c2ccc(Br)cc2)C(O)=C1C(=O)c1ccc(Br)cc1 (configuration not stated)	87.7 µM (inactive)	56.4 µM (inactive)	> 100 µM (inactive)	> 100	> 100 µM (inactive)	69.7 µM (inactive)	–	94.4 µM (inactive)	42.6 µM (inactive)	> 100 µM (inactive)	> 100 µM (inactive)	> 100 µM (inactive)	53.2 µM (inactive)	49.2 µM (inactive)	> 100 µM (inactive)	99.8 µM (inactive)	44.3 µM (inactive)	> 100 µM (inactive)
CC[C@@]1(O)C(=O)OCc2c1cc1n(c2=O)Cc2c-1nc1ccc(O)cc1c2[Si](C)(C)C(C)(C)C [AR-67]	< 0.01 µM (active)	< 0.01 µM (active)	0.139 µM (active)	0.122	< 0.01 µM (active)	< 0.01 µM (active)	0.0282 µM (active)	–	< 0.01 µM (active)	< 0.01 µM (active)	< 0.01 µM (active)	< 0.01 µM (active)	< 0.01 µM (active)	0.0855 µM (active)	< 0.01 µM (active)	< 0.0123 µM (active)	< 0.01 µM (active)	0.0205 µM (active)
CSc1nc2c(c(=O)[nH]1)N=C(c1ccc(Cl)cc1)CC(c1ccccc1)N2 (configuration not stated)	14.7 µM (inactive)	19.2 µM (inactive)	18.1 µM (inactive)	–	16.4 µM (inactive)	19.5 µM (inactive)	11.5 µM (inactive)	17.9 µM (inactive)	> 10 µM (inactive)	20 µM (inactive)	19.1 µM (inactive)	18.8 µM (inactive)	17.1 µM (inactive)	17.3 µM (inactive)	16.7 µM (inactive)	16.5 µM (inactive)	37.8 µM (inactive)	15.5 µM (inactive)
COc1c(-c2ccc(F)cc2)oc2cc(O)cc(O)c2c1=O	29.6 µM (inactive)	19.8 µM (inactive)	25.5 µM (inactive)	18.5	30.3 µM (inactive)	26.6 µM (inactive)	–	18.5 µM (inactive)	–	24.3 µM (inactive)	33.7 µM (inactive)	43 µM (inactive)	29.4 µM (inactive)	22.7 µM (inactive)	30.9 µM (inactive)	28.7 µM (inactive)	28.2 µM (inactive)	14.5 µM (inactive)
CC[C@]12C=CCN3CCC4(c5cc(/N=N/c6ccccc6)c(OC)cc5N(C)[C@H]4[C@@](O)(C(=O)OC)[C@@H]1OC(C)=O)[C@@H]32 (some centres not stated)	15.3 µM (inactive)	21 µM (inactive)	17 µM (inactive)	17.3	18.6 µM (inactive)	17.8 µM (inactive)	17.1 µM (inactive)	17.5 µM (inactive)	14.5 µM (inactive)	24.2 µM (inactive)	16.3 µM (inactive)	23.1 µM (inactive)	–	16.3 µM (inactive)	17.3 µM (inactive)	19.5 µM (inactive)	19.4 µM (inactive)	17.9 µM (inactive)
COc1cc2c(cc1C)NC(=O)/C2=C/c1c(Cl)n(-c2ccccc2)c2ccccc12	16.4 µM (inactive)	11.1 µM (inactive)	29.5 µM (inactive)	11.8	11.2 µM (inactive)	18.4 µM (inactive)	–	19.4 µM (inactive)	19.3 µM (inactive)	21 µM (inactive)	10.2 µM (inactive)	13.9 µM (inactive)	4.42 µM (inactive)	5.25 µM (inactive)	3.38 µM (inactive)	23.4 µM (inactive)	6.12 µM (inactive)	8.24 µM (inactive)
